Assay results published in publication PMC12115217, “3,3′-((3-Hydroxyphenyl)azanediyl)dipropionic Acid Derivatives as a Promising Scaffold Against Drug-Resistant Pathogens and Chemotherapy-Resistant Cancer” (Pathogens, 2025).
In brackets after ≈: the same amount, converted by molar mass. Read-outs that look alike come from different tables or passages of the source.

Columns and labels:
S. aureus TCH 1516 [1] = assay: Broth microdilution MIC, S. aureus TCH 1516; format: cell-based, Staphylococcus aureus; conditions: mecA MRSA isolate, USA300 lineage; CAMHB, 18 ± 2 h
Text: (§1) The multidrug-resistant S. aureus strain TCH 1516 [USA 300-HOU-MR] was obtained from the American Type Culture Collection (ATCC, Manassas, VA, USA) (Table 1). E. faecalis AR-0671, multidrug-resistant E. coli AR-0001, K. pneumoniae AR-0003, P. aeruginosa AR-1114, and A. baumannii AR-0273 strains were acquired from the Centers for Disease Control and Prevention (CDC) AR isolate bank (Table 1). Prior to the initiation of this study, all microbial strains were stored in commercial cryopreservation systems at a temperature of −80 °C. The strains were cultivated on Columbia sheep blood agar (Becton Dickinson, Franklin Lakes, NJ, USA) or potato dextrose agar (PDA) for Candida (Becton Dickinson, Franklin Lakes, NJ, USA).
(§2) The antimicrobial activity of 3-((3-hydroxyphenyl)amino)propanoic acid derivatives was assessed by using the broth microdilution method, following the guidelines outlined by the Clinical Laboratory Standards Institute (CLSI), with modifications. In brief, the compounds were dissolved in dimethyl sulfoxide (DMSO) to attain a final concentration of 25–30 mg/mL. Vancomycin hydrochloride (MedChem express, Cat. No. HY-17362), cefazolin (MedChem express, Cat. No. HY-B1892), and meropenem (MedChem express, Cat. No. HY-13678) were used as control antimicrobial drugs and were dissolved in DMSO as described before. Dilution series were prepared in deep 96-well microplates to achieve a two-fold concentration range of 0.25, 0.5, 1, 2, 4, 8, 16, 32, and 64 µg/mL, utilizing cation-adjusted Mueller–Hinton broth (CAMHB) as the growth medium. The microplates containing the dilution series were then inoculated with fresh cultures of each tested organism to reach a final concentration of 5 × 10^4 CFU (colony-forming units) of the test organism in media containing 1% DMSO and 1× drug concentration, with a volume of 200 µL per well. Wells that were inoculated with medium containing 1% DMSO served as positive controls. Subsequently, the microplates were incubated at 35 ± 1 °C for 18 ± 2 h. Following the incubation period, the plates were examined by using a manual microplate viewer (Sensititre Manual Viewbox, ThermoFisher Scientific, Waltham, MA, USA). […] All experiments were conducted in duplicate with three technical replicates for each condition.

E. faecalis AR-0671 = assay: Broth microdilution MIC, E. faecalis AR-0671; format: cell-based, Enterococcus faecalis; conditions: for MIC: Enterococcus faecalis
Text: as §1, §2

E. coli AR-0001 [2] = assay: Broth microdilution MIC, E. coli AR-0001; format: cell-based, Escherichia coli; conditions: for minimal inhibitory concentration (MIC) E. coli AR-0001: multidrug-resistant, KPC-3, CAMHB; for MIC: Escherichia coli, AR0001, read-out: minimal inhibitory concentration (MIC) E. coli AR-0001
Text: as §1, §2

K. pneumoniae AR-0003 [3] = assay: Broth microdilution MIC, K. pneumoniae AR-0003; format: cell-based, Klebsiella pneumoniae; conditions: for minimal inhibitory concentration (MIC) K. pneumoniae AR-0003: KPC-3, CAMHB; for MIC: Klebsiella pneumoniae, AR0003, read-out: minimal inhibitory concentration (MIC) K. pneumoniae AR-0003
Text: as §1, §2

P. aeruginosa AR-1114 [4] = assay: Broth microdilution MIC, P. aeruginosa AR-1114; format: cell-based, Pseudomonas aeruginosa; conditions: for minimal inhibitory concentration (MIC) P. aeruginosa AR-1114: IMP-15, CAMHB; for MIC: Pseudomonas aeruginosa, AR1114, read-out: minimal inhibitory concentration (MIC) P. aeruginosa AR-1114
Text: as §1, §2

A. baumannii AR-0273 = assay: Broth microdilution MIC, A. baumannii AR-0273; format: cell-based, Acinetobacter baumannii; conditions: for MIC: Acinetobacter baumannii
Text: as §1, §2

FaDu cells = assay: MTT cell viability at fixed 100 µM, FaDu cells; format: cell-based; conditions: 24 h, described in words (Figure 2)
Protocol: Test compounds 2–25 were dissolved in hybridoma-grade dimethyl sulfoxide (Millipore, Sigma, Burlington, MA, USA) to prepare stock solutions at concentrations of 10–25 mg/mL. […] For in vitro anticancer activity screening, the compounds were thawed at room temperature, protected from light, and the aliquots were diluted in complete cell culture media to achieve a final concentration of 100 µM and used for the in vitro assays. The cytotoxicity assays were performed in triplicate.
FaDu cells were obtained from the American Type Culture Collection (Rockville, MD, USA). HEK293 cells were kindly provided by Dr. Iliev lab at the Jill Roberts Institute for Inflammatory Bowel Disease, Weill Cornel Medicine of Cornel University (New York, NY, USA). All cells were cultivated in Dulbecco’s Modified Eagle Medium/Nutrient Mixture F-12 (DMEM/F-12) (Gibco, Waltham, MA, USA), 10% fetal bovine serum (FBS) (Gibco, Waltham, MA, USA), 100 U/mL penicillin, and 100 μg/mL streptomycin (P/S) (Gibco, Waltham, MA, USA). Culturing conditions were maintained at 37 °C in a humidified atmosphere containing 5% CO2. The culture medium was refreshed every 2–3 days, and cells were passaged upon reaching 70–80% confluence.
The in vitro inhibitory effects of the compounds were assessed by using the MTT assay. Briefly, cells were plated in 96-well plates at a density of 1 × 10⁴ cells per well. After the cells were allowed to adhere overnight at 37 °C in 5% CO₂, they were treated with compounds at a concentration of 100 µM in triplicate. Following a 20 h incubation, the MTT reagent was added, and the cells were further incubated for 4 h. The resulting formazan was solubilized in anhydrous DMSO, and absorbance was measured at 570 nm by using a microplate reader. Cell viability was calculated by using the following formula: ([AE − AB]/[AC − AB]) × 100%, where AE, AC, and AB represent the absorbance values of experimental samples, untreated controls, and blank wells, respectively. Data analysis was performed by using GraphPad Prism or QuickCalcs.

S. aureus TCH 1516 [5] = assay: Broth microdilution MIC, S. aureus TCH 1516; format: cell-based; conditions: Staphylococcus aureus
E. coli AR-0001 [6] = assay: Broth microdilution MIC, E. coli AR-0001; format: cell-based; conditions: Escherichia coli, AR0001; multidrug-resistant, KPC-3; CAMHB, 18 ± 2 h; read-out: minimal inhibitory concentration (MIC) E. coli AR-0001
K. pneumoniae AR-0003 [7] = assay: Broth microdilution MIC, K. pneumoniae AR-0003; format: cell-based; conditions: Klebsiella pneumoniae, AR0003; KPC-3; CAMHB, 18 ± 2 h; read-out: minimal inhibitory concentration (MIC) K. pneumoniae AR-0003
P. aeruginosa AR-1114 [8] = assay: Broth microdilution MIC, P. aeruginosa AR-1114; format: cell-based; conditions: Pseudomonas aeruginosa, AR1114; IMP-15; CAMHB, 18 ± 2 h; read-out: minimal inhibitory concentration (MIC) P. aeruginosa AR-1114
[9] = AR0671, CAMHB, 18 ± 2 h, read-out: minimal inhibitory concentration (MIC) E. faecalis AR-0671
[10] = AR0273, OXA-23, CAMHB, 18 ± 2 h, read-out: minimal inhibitory concentration (MIC) A. baumannii AR-0273
[11] = MRSA / USA300, mecA MRSA isolate, USA300 lineage, CAMHB, 18 ±, read-out: minimal inhibitory concentration (MIC) S. aureus TCH 1516
[12] = AR0671, read-out: minimal inhibitory concentration (MIC) E. faecalis AR-0671
[13] = AR0273, read-out: minimal inhibitory concentration (MIC) A. baumannii AR-0273
[14] = MRSA / USA300, read-out: minimal inhibitory concentration (MIC) S. aureus TCH 1516

Compound | minimal inhibitory concentration (MIC) S. aureus TCH 1516 (S. aureus TCH 1516 [1]) [µg/mL] | minimal inhibitory concentration (MIC) E. faecalis AR-0671 (E. faecalis AR-0671; CAMHB) [µg/mL] | MIC (E. faecalis AR-0671; [9]) [µg/mL] | minimal inhibitory concentration (MIC) E. coli AR-0001 (E. coli AR-0001 [2]) [µg/mL] | minimal inhibitory concentration (MIC) K. pneumoniae AR-0003 (K. pneumoniae AR-0003 [3]) [µg/mL] | minimal inhibitory concentration (MIC) P. aeruginosa AR-1114 (P. aeruginosa AR-1114 [4]) [µg/mL] | MIC (A. baumannii AR-0273; [10]) [µg/mL] | minimal inhibitory concentration (MIC) A. baumannii AR-0273 (A. baumannii AR-0273; OXA-23, CAMHB) [µg/mL] | post-treatment viability (MTT assay) (FaDu cells) | MIC (S. aureus TCH 1516 [5]; [11]) [µg/mL] | MIC (E. coli AR-0001 [6]) [µg/mL] | MIC (K. pneumoniae AR-0003 [7]) [µg/mL] | MIC (P. aeruginosa AR-1114 [8]) [µg/mL] | MIC (E. faecalis AR-0671; [12]) [µg/mL] | MIC (E. coli AR-0001 [2]) [µg/mL] | MIC (K. pneumoniae AR-0003 [3]) [µg/mL] | MIC (P. aeruginosa AR-1114 [4]) [µg/mL] | MIC (A. baumannii AR-0273; [13]) [µg/mL] | MIC (S. aureus TCH 1516 [5]; [14]) [µg/mL]
O=C(O)CCN(CCC(=O)O)c1cccc(O)c1 [Compound 2, 3,3′-((3-Hydroxyphenyl)azanediyl)dipropionic Acid] | >64 | >64 | > 64 | >64 | >64 | >64 | > 64 | >64 | minimal cytotoxicity | > 64 | > 64 | > 64 | > 64 | – | – | – | – | – | –
NNC(=O)CCN(CCC(=O)NN)c1cccc(O)c1 [Compound 4, 3,3′-((3-Hydroxyphenyl)azanediyl)di(propanehydrazide)] | – | >64 | > 64 | >64 | >64 | >64 | > 64 | >64 | moderate decrease in viability | 8 (≈ 28.4 µM) | > 64 | > 64 | > 64 | – | – | – | – | – | –
O=C(O)CCN1CCC(=O)c2ccc(O)cc21 [Compound 7, 3-(7-Hydroxy-4-oxo-3,4-dihydroquinolin-1(2H)-yl)propanoic Acid] | >64 | >64 | > 64 | >64 | >64 | >64 | > 64 | >64 | – | > 64 | > 64 | > 64 | > 64 | – | – | – | – | – | –
O=C(CCN(CCC(=O)NN=Cc1ccccc1)c1cccc(O)c1)NN=Cc1ccccc1 [Compound 8, 3,3′-((3-Hydroxyphenyl)azanediyl)bis(N′-(benzylidene)propanehydrazide)] | >64 | >64 | > 64 | >64 | >64 | >64 | > 64 | >64 | – | > 64 | > 64 | > 64 | > 64 | – | – | – | – | – | –
O=C(CCN(CCC(=O)NN=Cc1ccc([N+](=O)[O-])cc1)c1cccc(O)c1)NN=Cc1ccc([N+](=O)[O-])cc1 [Compound 10, 3,3′-((3-Hydroxyphenyl)azanediyl)bis(N′-(4-nitrobenzylidene)propanehydrazide)] | – | – | – | – | – | – | – | – | – | – | – | – | – | 16 (≈ 29.2 µM) | > 64 | > 64 | > 64 | > 64 | 4 (≈ 7.31 µM)
COc1cc(C=NNC(=O)CCN(CCC(=O)NN=Cc2cc(OC)c(OC)c(OC)c2)c2cccc(O)c2)cc(OC)c1OC [Compound 13, 3,3′-((3-Hydroxyphenyl)azanediyl)bis(N′-(3,4,5-trimethoxybenzylidene)propanehydrazide)] | >64 | >64 | > 64 | >64 | >64 | >64 | > 64 | >64 | – | > 64 | > 64 | > 64 | > 64 | – | – | – | – | – | –
O=C(CCN(CCC(=O)NN=Cc1ccc([N+](=O)[O-])s1)c1cccc(O)c1)NN=Cc1ccc([N+](=O)[O-])s1 [Compound 16, 3,3′-((3-Hydroxyphenyl)azanediyl)bis(N′-((5-nitrothiophen-2-yl)methylene)propanehydrazide)] | – | – | – | – | – | – | – | – | – | – | – | – | – | 4 (≈ 7.15 µM) | 32 (≈ 57.2 µM) | > 64 | > 64 | > 64 | 1 (≈ 1.79 µM)
O=C(CCN(CCC(=O)N/N=C/c1ccc([N+](=O)[O-])o1)c1cccc(O)c1)N/N=C/c1ccc([N+](=O)[O-])o1 [Compound 17] | – | >64 | – | – | – | – | – | – | – | – | – | – | – | > 64 | > 64 | > 64 | > 64 | > 64 | 16 (≈ 30.3 µM)
O=C(CCN(CCC(=O)N/N=C/c1ccsc1)c1cccc(O)c1)N/N=C/c1ccsc1 [Compound 18] | >64 | >64 | > 64 | >64 | >64 | >64 | > 64 | >64 | – | > 64 | > 64 | > 64 | > 64 | – | – | – | – | – | –
